In brackets after ≈: the same amount, converted by molar mass.
Legend:
[1] = biological target: T1, Oxytocin receptor (Homo sapiens, UniProt P30559); assay: Antagonist activity at human oxytocin receptor by cell based beta-lactamase reporter gene assay; assay type: functional
T1 sequence (P30559 whole entry): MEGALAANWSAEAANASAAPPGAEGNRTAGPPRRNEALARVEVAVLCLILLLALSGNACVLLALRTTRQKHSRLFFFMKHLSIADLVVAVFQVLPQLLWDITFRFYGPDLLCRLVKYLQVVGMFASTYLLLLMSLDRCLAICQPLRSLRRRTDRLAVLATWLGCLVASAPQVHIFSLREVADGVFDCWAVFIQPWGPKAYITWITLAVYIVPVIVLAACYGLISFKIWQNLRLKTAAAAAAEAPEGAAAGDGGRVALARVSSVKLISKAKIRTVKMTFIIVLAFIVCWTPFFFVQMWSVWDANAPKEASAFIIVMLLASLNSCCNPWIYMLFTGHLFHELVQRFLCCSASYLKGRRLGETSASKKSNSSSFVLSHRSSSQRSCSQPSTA

[2] = biological target: Vasopressin V1a receptor (Homo sapiens, UniProt P37288); assay: Antagonist activity at human vasopressin V1a receptor by cell based beta-lactamase reporter gene assay; assay type: functional
[3] = biological target: Vasopressin V2 receptor (Homo sapiens, UniProt P30518); assay: Antagonist activity at human vasopressin V2 receptor by cell based beta-lactamase reporter gene assay; assay type: functional
[4] = biological target: T2, Vasopressin V1b receptor (Homo sapiens) (UniProt P47901); assay: Binding affinity to human vasopressin V1b receptor at 10 uM relative to control
T2 sequence (whole entry): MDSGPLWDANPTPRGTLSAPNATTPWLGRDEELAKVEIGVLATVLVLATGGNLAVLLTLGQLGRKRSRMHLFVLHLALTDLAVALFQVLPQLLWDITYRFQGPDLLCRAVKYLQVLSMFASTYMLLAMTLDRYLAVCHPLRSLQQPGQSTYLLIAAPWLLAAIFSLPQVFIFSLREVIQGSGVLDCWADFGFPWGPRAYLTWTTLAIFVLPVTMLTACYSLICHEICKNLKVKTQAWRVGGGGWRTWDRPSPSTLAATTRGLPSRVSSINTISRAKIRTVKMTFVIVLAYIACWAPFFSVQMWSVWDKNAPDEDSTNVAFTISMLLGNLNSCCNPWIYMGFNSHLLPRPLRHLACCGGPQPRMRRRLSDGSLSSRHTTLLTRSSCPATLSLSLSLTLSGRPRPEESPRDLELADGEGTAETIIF

[5] = Aqueous solubility at pH 7.4; assay type: physicochemical
[6] = biological target: T3, Vasopressin V1b receptor (Homo sapiens, UniProt P47901); assay: Antagonist activity at human vasopressin V1b receptor by cell based beta-lactamase reporter gene assay; assay type: functional
T3 sequence (P47901 whole entry): T2 sequence (whole entry)

[7] = Intrinsic clearance in human liver microsomes; assay type: ADME, Microsome

Chain of Vasopressin V1a receptor (P37288 whole entry): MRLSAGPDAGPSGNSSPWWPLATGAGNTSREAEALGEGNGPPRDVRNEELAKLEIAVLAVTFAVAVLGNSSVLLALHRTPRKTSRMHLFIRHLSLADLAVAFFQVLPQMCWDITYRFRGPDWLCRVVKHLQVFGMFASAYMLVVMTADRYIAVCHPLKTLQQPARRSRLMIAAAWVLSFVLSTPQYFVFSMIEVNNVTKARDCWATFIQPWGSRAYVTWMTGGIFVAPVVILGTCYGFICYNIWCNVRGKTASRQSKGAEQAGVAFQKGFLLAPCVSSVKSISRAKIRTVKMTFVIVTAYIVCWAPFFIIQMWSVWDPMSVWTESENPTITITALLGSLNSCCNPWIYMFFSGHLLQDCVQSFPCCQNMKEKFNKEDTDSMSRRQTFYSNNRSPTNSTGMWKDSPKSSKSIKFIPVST
Chain of Vasopressin V2 receptor (P30518 whole entry): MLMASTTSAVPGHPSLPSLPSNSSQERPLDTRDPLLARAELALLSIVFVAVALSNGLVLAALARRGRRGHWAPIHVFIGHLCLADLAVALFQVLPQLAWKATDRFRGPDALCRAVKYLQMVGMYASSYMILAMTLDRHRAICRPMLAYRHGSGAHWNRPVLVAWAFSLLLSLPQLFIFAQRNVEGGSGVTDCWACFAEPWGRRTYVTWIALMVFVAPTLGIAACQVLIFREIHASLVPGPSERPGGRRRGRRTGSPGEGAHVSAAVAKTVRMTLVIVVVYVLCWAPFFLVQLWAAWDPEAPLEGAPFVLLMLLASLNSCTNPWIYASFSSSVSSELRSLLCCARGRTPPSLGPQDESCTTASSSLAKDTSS

Ki [1] [µM]	Ki [2] [µM]	Ki [3] [µM]	Activity [4] [%]	solubility [5] [µg/mL]	Ki [6] [µM]	microsomal CLint [7] [µL/min/mg]	SMILES
0.102	3.8	> 10	< 20	170 (≈ 480 µM)	–	–	CCOc1ccc(-c2nnc(COC)n2-c2ccc(OC)nc2)cc1C
0.019	1.7	6.4	< 20	–	–	–	CCOc1ccc(-c2nnc(COCCOC)n2-c2ccc(OC)nc2)cc1C
–	–	–	< 20	–	–	–	COc1ccc(-n2c(C)nnc2-c2cnc(-c3ccc(F)cc3C)cn2)cn1
0.045	0.214	1	< 20	–	–	–	CCOc1ccc(-c2nnc(Cn3nccn3)n2-c2ccc(OC)nc2)cc1C
–	–	–	< 20	–	–	–	COCc1nnc(-c2cnc(-c3ccc(C#N)cc3C)cn2)n1-c1ccc(OC)nc1
0.028	0.594	> 10	< 20	344 (≈ 934 µM)	> 10	12	CCOCc1nnc(-c2ccc(OCC)c(C)c2)n1-c1ccc(OC)nc1
0.006	–	–	< 20	–	–	–	CCOc1ccc(S(=O)(=O)N(CC(=O)N/N=C2\C(=O)Nc3ccccc32)c2ccccc2)cc1
0.144	2.9	> 10	< 20	–	–	–	CCOc1ccc(-c2nnc(COC)n2-c2ccc(OC)nc2)cc1Cl
0.19	> 10	> 10	< 20	–	–	–	CCOc1ccc(-c2nnc(COC)n2-c2ccc(OC)nc2)cc1C(F)(F)F
0.143	> 10	> 10	< 20	–	–	–	CCOc1ccc(-c2nnc(C)n2-c2ccc(OC)nc2)cc1C

— ChEMBL document CHEMBL1144202, “Triazole oxytocin antagonists: identification of aryl ether replacements for a biaryl substituent” (Bioorg Med Chem Lett, 2008)
